Laboratory results: US12077503B2, “Substituted cyclic amides and their use as herbicides” (FMC CORPORATION, priority 2015, dated 2024)

Columns and labels:
Type in all cases: in vivo
Kochia (Kochia scoparia) [1] = experiment: Test A preemergence
Method in brief: (§1)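 Compounds were formulated in a non-phytotoxic solvent mixture with surfactant and applied as a preemergence directed soil spray after seeding, or sprayed postemergence over plants 2 to 10 cm tall at the one- to two-leaf stage. Evaluation after about 10 d compared treated with untreated controls, using a scale from 0 (no effect) to 100 (complete control).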

[2] = test system: barnyardgrass (Echinochloa crus-galli); experiment: Test A preemergence
Method in brief: as §1

[3] = test system: giant foxtail (Setaria faberii); experiment: Test A preemergence
Method in brief: as §1

[4] = test system: pigweed (Amaranthus retroflexus); experiment: Test A preemergence
[5] = test system: ragweed (common ragweed, Ambrosia elatior); experiment: Test A preemergence
Method in brief: as §1

[6] = test system: ryegrass, Italian (Italian ryegrass, Lolium multiflorum); experiment: Test A preemergence
Method in brief: as §1

[7] = test system: Galium (catchweed bedstraw, Galium aparine); experiment: Test A postemergence; conditions: postemergence, 0 to 100 scale (0 no effect, 100 complete control)
Method in brief: as §1

Kochia (Kochia scoparia) [8] = experiment: Test A postemergence; conditions: postemergence, 0 to 100 scale (0 no effect, 100 complete control)
Method in brief: as §1

[9] = test system: barnyardgrass (Echinochloa crus-galli); experiment: Test A postemergence; conditions: postemergence, 0 to 100 scale (0 no effect, 100 complete control)
Method in brief: as §1

[10] = test system: blackgrass (Alopecurus myosuroides); experiment: Test A postemergence; conditions: postemergence, 0 to 100 scale (0 no effect, 100 complete control)
Method in brief: as §1

corn (Zea mays) = experiment: Test A postemergence; conditions: postemergence, 0 to 100 scale (0 no effect, 100 complete control)
Method in brief: as §1

[11] = test system: giant foxtail (Setaria faberii); experiment: Test A postemergence; conditions: postemergence, 0 to 100 scale (0 no effect, 100 complete control)
Method in brief: as §1

[12] = test system: pigweed (Amaranthus retroflexus); experiment: Test A postemergence; conditions: postemergence, 0 to 100 scale (0 no effect, 100 complete control)
Method in brief: as §1

[13] = test system: ragweed (common ragweed, Ambrosia elatior); experiment: Test A postemergence; conditions: postemergence, 0 to 100 scale (0 no effect, 100 complete control)
Method in brief: as §1

[14] = test system: ryegrass, Italian (Italian ryegrass, Lolium multiflorum); experiment: Test A postemergence; conditions: postemergence, 0 to 100 scale (0 no effect, 100 complete control)
Method in brief: as §1

[15] = test system: wheat (Triticum aestivum); experiment: Test A postemergence; conditions: postemergence, 0 to 100 scale (0 no effect, 100 complete control)
Method in brief: as §1

[16] = test system: barnyardgrass (Echinochloa crus-galli); experiment: Test B flooded paddy test; conditions: Flood, 250 g ai/ha; 0 to 100 scale where 0 is no effect and 100 is complete control; 13 to 15 d
Method in brief: (§2)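 Evaluation by eye, against controls, occurred 13–15 d post-treatment in a greenhouse, using a 0 (no effect) to 100 (complete control) scale. Application was into the paddy water, 3 cm deep over the soil, on 2-leaf plants.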

[17] = test system: ducksalad (Heteranthera limosa); experiment: Test B flooded paddy test; conditions: Flood, 250 g ai/ha; 0 to 100 scale where 0 is no effect and 100 is complete control; 13 to 15 d
Method in brief: as §2

rice (Oryra sativa) = experiment: Test B flooded paddy test; conditions: Flood, 250 g ai/ha; 0 to 100 scale where 0 is no effect and 100 is complete control; 13 to 15 d
Method in brief: as §2

[18] = test system: sedge, umbrella (small-flower umbrella sedge, Cyperus difformis); experiment: Test B flooded paddy test; conditions: Flood, 250 g ai/ha; for Plant response rating, Sedge, Umbrella: 0 to 100 scale where 0 is no effect and 100 is complete control, 13 to 15 d
Method in brief: as §2

[19] = test system: ragweed (common ragweed, Ambrosia elatior); experiment: Test C preemergence; conditions: for Plant response rating (scale of 0 to 100), Ragweed: 0 is no effect, 100 is complete control; for Plant response rating, Ragweed: scale 0 to 100, 0 no effect, 100 complete control
Excerpt: Seeds of plant species selected from blackgrass (Alopecurus myosuroides), ryegrass, Italian (Italian ryegrass, Lolium multiflorum), wheat (winter wheat, Triticum aestivum), Galium (catchweed bedstraw, Galium aparine), corn (Zea mays), crabgrass, large (large crabgrass, Digitaria sanguinalis), foxtail, giant (giant foxtail, Setaria faberii), johnsongrass (Sorghum halepense), lambsquarters (Chenopodium album), morningglory (Ipomoea coccinea), nutsedge, yellow (yellow nutsedge, Cyperus esculentus), pigweed (Amaranthus retroflexus), ragweed (common ragweed, Ambrosia elatior), soybean (Glycine max), barnyardgrass (Echinochloa crus-galli), oilseed rape (Brassica napus), waterhemp (common waterhemp, Amaranthus rudis) and velvetleaf (Abutilon theophrasti) were planted into a blend of loam soil and sand and treated preemergence with test chemicals formulated in a non-phytotoxic solvent mixture which included a surfactant.
At the same time, plants selected from these crop and weed species and also Kochia (Kochia scoparia), oat, wild (wild oat, Avena fatua), and chickweed (common chickweed, Stellaria media) were planted in pots containing Sunshine Redi-Earth® planting medium comprising spaghnum peat moss, vermiculite, starter nutrients and dolomitic limestone and treated with postemergence applications of test chemicals formulated in the same manner. Plants ranged in height from 2 to 18 cm (1- to 4-leaf stage) for postemergence treatments. Treated plants and controls were maintained in a greenhouse for 13 to 15 d, after which time all species were compared to controls and visually evaluated. Plant response ratings, summarized in Table C, are based on a scale of 0 to 100 where 0 is no effect and 100 is complete control. A dash (-) response means no test result.

[20] = 125 g ai/ha, Preemergence, visual injury after approximately 10 d, 0 to 100 scale where 0 is no effect and 100 is complete control
[21] = 500 g ai/ha, preemergence, 0 to 100 scale, 0 = no effect, 100 = complete control
[22] = 125 g ai/ha, visual rating after approx. 10 d
[23] = 500 g ai/ha, visual injury, approx. 10 d
[24] = 125 g ai/ha, preemergence, visual rating after approx. 10 d, 0 to 100 scale where 0 is no effect and 100 is complete control
[25] = 125 g ai/ha, visual injury after approximately 10 d

| Compound | Plant response rating, Kochia (Kochia (Kochia scoparia) [1]; [20]) | Plant response rating, Kochia (Kochia (Kochia scoparia) [1]; [21]) | Plant response rating, Barnyardgrass [2, 20] | Plant response rating, Barnyardgrass [2, 21] | Plant response rating, Foxtail, Giant [3, 20] | Plant response rating, Foxtail, Giant [3, 21] | Plant response rating, Pigweed [4, 21] | Plant response rating, Ragweed [5, 21] | Plant response rating, Ryegrass, Italian [6, 21] | Plant response rating, Galium [7, 23] | Plant response rating, Kochia (Kochia (Kochia scoparia) [8]; [23]) | Plant response rating, Barnyardgrass [9, 22] | Plant response rating, Barnyardgrass [9, 23] | Plant response rating, Blackgrass [10, 22] | Plant response rating, Blackgrass [10, 23] | Plant response rating, Corn (corn (Zea mays); [23]) | Plant response rating, Foxtail, Giant [11, 23] | Plant response rating, Pigweed [12, 23] | Plant response rating, Ragweed [13, 23] | Plant response rating, Ryegrass, Italian [14, 23] | further results |
| --- | --- | --- | --- | --- | --- | --- | --- | --- | --- | --- | --- | --- | --- | --- | --- | --- | --- | --- | --- | --- | --- |
| CN1CC(c2ccc(F)c(F)c2)C(C(=O)Nc2ccccc2C(F)(F)F)C1=O (stereo not drawn) [Compound 641] | 20 | 50 | 90 | 0 | 90 | 100 | 50 | 60 | 60 | 50 | 20 | 90 | 90 | 30 | 60 | 50 | 90 | 20 | 20 | 40 | Plant response rating, Pigweed [4, 20]: 20; Plant response rating, Ragweed [5, 20]: 0; Plant response rating, Ryegrass, Italian [6, 20]: 20; Plant response rating, Galium [7, 22]: 40; Plant response rating, Kochia (Kochia (Kochia scoparia) [8]; [22]): 0; Plant response rating, Corn (corn (Zea mays); [22]): 0; Plant response rating, Foxtail, Giant [11, 22]: 90; Plant response rating, Pigweed [12, 22]: 0; Plant response rating, Ragweed [13, 22]: 0; Plant response rating, Ryegrass, Italian [14, 22]: 0; Plant response rating, Wheat [15, 22]: 0; Plant response rating, Wheat [15, 23]: 30; Plant response rating, Barnyardgrass [16]: 70; Plant response rating, Ducksalad [17]: 100; Plant response rating, Rice (rice (Oryra sativa)): 0; Plant response rating, Sedge, Umbrella [18]: 0; Plant response rating (scale of 0 to 100), Ragweed ([19]; 31 g ai/ha): 0; Plant response rating, Ragweed ([19]; 62 g ai/ha): 25; Plant response rating, Ragweed ([19]; 125 g ai/ha): 30; Plant response rating, Ragweed ([19]; 250 g ai/ha): 45 |
| CN1CC(c2cc(F)cc(F)c2)C(C(=O)Nc2ccc(F)c(F)c2F)C1=O (stereo not drawn) [Compound 646] | 60 | 70 | 90 | 90 | 90 | 100 | 70 | 70 | 90 | 50 | 70 | 90 | 90 | 70 | 80 | 80 | 90 | 20 | 40 | 70 | Plant response rating, Pigweed [4, 20]: 60; Plant response rating, Ragweed [5, 20]: 60; Plant response rating, Ryegrass, Italian [6, 20]: 60; Plant response rating, Galium [7, 22]: 40; Plant response rating, Kochia (Kochia (Kochia scoparia) [8]; [22]): 60; Plant response rating, Corn (corn (Zea mays); [22]): 70; Plant response rating, Foxtail, Giant [11, 22]: 90; Plant response rating, Pigweed [12, 22]: 20; Plant response rating, Ragweed [13, 22]: 0; Plant response rating, Ryegrass, Italian [14, 22]: 60; Plant response rating, Wheat [15, 22]: 40; Plant response rating, Wheat [15, 23]: 70; Plant response rating, Barnyardgrass [16]: 80; Plant response rating, Ducksalad [17]: 98; Plant response rating, Rice (rice (Oryra sativa)): 25; Plant response rating, Sedge, Umbrella [18]: 0; Plant response rating (scale of 0 to 100), Ragweed ([19]; 31 g ai/ha): 20; Plant response rating, Ragweed ([19]; 62 g ai/ha): 30; Plant response rating, Ragweed ([19]; 125 g ai/ha): 60; Plant response rating, Ragweed ([19]; 250 g ai/ha): 70 |
| CN1CC(c2ccc(C(C)(F)F)cc2)C(C(=O)Nc2cccc(F)c2F)C1=O (stereo not drawn) [Compound 690] | 80 | 90 | 90 | 90 | 90 | 90 | 90 | 80 | 70 | 70 | 70 | 80 | 80 | 60 | 70 | 80 | 80 | 70 | 70 | 60 | Plant response rating, Pigweed [4, 24]: 80; Plant response rating, Ragweed [5, 24]: 70; Plant response rating, Ryegrass, Italian [6, 24]: 60; Plant response rating, Galium [7, 25]: 70; Plant response rating, Kochia (Kochia (Kochia scoparia) [8]; [25]): 50; Plant response rating, Corn (corn (Zea mays); [25]): 70; Plant response rating, Foxtail, Giant [11, 25]: 80; Plant response rating, Pigweed [12, 25]: 60; Plant response rating, Ragweed [13, 25]: 60; Plant response rating, Ryegrass, Italian [14, 25]: 50; Plant response rating, Wheat [15, 25]: 50; Plant response rating, Wheat [15, 23]: 60; Plant response rating, Barnyardgrass [16]: 50; Plant response rating, Ducksalad [17]: 75; Plant response rating, Rice (rice (Oryra sativa)): 0; Sedge, Umbrella plant response rating ([18]; scale of 0 to 100 where 0 is no effect and 100 is complete control): 0; Plant response rating (scale of 0 to 100), Ragweed ([19]; 8 g ai/ha): 0; Plant response rating (scale of 0 to 100), Ragweed ([19]; 16 g ai/ha): 10; Plant response rating (scale of 0 to 100), Ragweed ([19]; 31 g ai/ha): 25; Plant response rating, Ragweed ([19]; 62 g ai/ha): 80 |
